US12643884B2, “1-(2-(4-cyclopropyl-1H-1,2,3-triazol-1-yl)acetyl)-4-hydroxypyrrolidine-2-carboxa|mide derivatives as VHL inhibitors for the treatment of anemia” (Genentech, Inc., priority 2020, dated 2026)

Tests used:
[1] = target: T1, NanoLuc VHL fusion protein stably expressed in HEK 293 cells (Homo sapiens, UniProt P40337); assay: VHL HEK-293 BRET Assay (VHL NanoBRET Target Engagement Assay); format: cell-based; details: for IC50: HEK293 cells, nanoBRET, geometric mean where more than one measurement, read-out: VHL binding in cells (HEK293 nanoBRET); for Ratio cell permeability shift: ratio of nanoBRET in cells to nanoBRET +Digitonin
T1 construct: expressed in transfected cells
Method: The VHL NanoBRET™ Target Engagement Assay analyzes the apparent affinity of test compounds for VHL in cells by competitive displacement of a VHL NanoBRET™ tracer reversibly bound to a NanoLuc® VHL fusion protein stably expressed in the cells.
Test compounds were transferred to the assay plate (384 Well White Non-Binding Corning Assay Plates (Corning-3574)) using an Echo 555 Liquid Handler (Labcyte) in 2.5 nL increments and, as appropriate, intermediate stock concentrations of compounds, in order to prepare a titration series. 50 nL of control compound (10 mM; parental unlabeled VHL antagonist; see structure below) and 50 nL of DMSO (negative control) were dispensed into the appropriate control wells. DMSO was backfilled to a final volume of 50 nL as required. 50 nl per well of 1 mM VHL NanoBRET™ Tracer in DMSO (NanoBRET™ Tracer-PEG2-590 (see structure below)) was transferred into each well using an Echo 555 (ultimately yielding a final concentration of 1 uM). HEK 293 RT VHL-NanoLuc® stable cells were cultured in DMEM High Glucose with Pyruvate, 10% fetal bovine serum, 2 mg/mL of Geneticin Selective Antibiotic (50 mg/ml) and 2 mM HEPES (1 M). Cells were seeded in Opti-MEM (Life Technologies-11058-021), 1.7×10^5 cells/mL, 40 μl per well into the assay plate, centrifuged at 500 rpm for 30 seconds and incubated for 2 hours. Max Signal control wells consisted of DMSO only treated wells. Minimum Signal control wells contained of 10 uM parental unlabeled VHL antagonist (control compound—see structure below). 3× Complete Substrate plus Inhibitor Solution was prepared in Opti-MEM (consists of a 1:166 dilution of NanoBRET™ Nano-Glo® Substrate plus a 1:500 dilution of Extracellular NanoLuc® Inhibitor in Opti-MEM), and 20 ul was dispensed into each well of the 384-well plate and centrifuged at 1000 rpm for 1 minute, then incubated for 2 minutes at room temperature. Background Signal control wells were prepared without tracer for background correction steps.
Plates were read using a PerkinElmer Envision Reader (model 2104-0020) equipped with Luminescence option (Mirror: BRET2 Enh (PE Barcode 659), Emission Filter: Omega 610LP (Barcode 504), 2nd Emission Filter: Umbelliferone 460 (Barcode 207), Measurement height: 6.5 mm, Measurement time: 1 s). The raw BRET ratio values were calculated by dividing the acceptor emission value (610 nm) by the donor emission value (460 nm) for each sample. To correct for background, the BRET ratio in the absence of tracer (average of no-tracer control samples) was subtracted from the BRET ratio of each sample. Raw BRET units were converted to milliBRET units (mBU) by multiplying each raw BRET value by 1,000. The normalized NanoBRET™ signal was calculated relative to the Max Signal control wells (DMSO treated control wells) and the Minimum Signal control wells. Percentage inhibition was calculated relative to the Minimum Signal control and Maximum Signal control wells. IC50 values were derived by four parameter curve fitting using the Robust method.

VHL = target: T2, VHL (Homo sapiens, UniProt P40337); assay: VHL nanoBRET (+Digitonin); format: cell-based
T2 construct: expressed in transfected cells
T2 sequence (P40337 whole entry): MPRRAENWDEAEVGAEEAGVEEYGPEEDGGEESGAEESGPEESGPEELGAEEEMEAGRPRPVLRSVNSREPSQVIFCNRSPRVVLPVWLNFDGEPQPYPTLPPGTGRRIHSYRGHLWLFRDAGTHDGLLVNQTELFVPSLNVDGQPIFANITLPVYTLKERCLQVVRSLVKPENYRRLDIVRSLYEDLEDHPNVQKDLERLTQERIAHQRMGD
T2 sequence (Q15370 whole entry partner): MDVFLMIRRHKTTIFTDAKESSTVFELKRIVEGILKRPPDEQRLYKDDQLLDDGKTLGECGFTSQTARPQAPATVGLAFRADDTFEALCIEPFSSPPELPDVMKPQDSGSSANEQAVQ
T2 sequence (Q15369 whole entry partner): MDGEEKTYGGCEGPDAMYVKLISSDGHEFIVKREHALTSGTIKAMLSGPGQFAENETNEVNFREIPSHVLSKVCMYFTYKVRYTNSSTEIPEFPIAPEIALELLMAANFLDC

T1 sequence (P40337 whole entry, the tested form may be a part): as the sequence (P40337 whole entry) above
T1 sequence (Q15370 whole entry partner, the tested form may be a part): as the sequence (Q15370 whole entry partner) above
T1 sequence (Q15369 whole entry partner, the tested form may be a part): as the sequence (Q15369 whole entry partner) above

| SMILES | IC50 [1] [nM] | Ratio cell permeability shift [1] | EC50 (VHL) [nM] |
| --- | --- | --- | --- |
| CNC(=O)[C@@H]1C[C@@H](O)CN1C(=O)[C@H](C(C)C)n1cc(-c2ccc[nH]2)nn1 (mixture of isomers) [Final product from Example S29, (2S, 4R)-4-hydroxy-N-methyl-1-[rac-(2S)-3-methyl-2-[4-(1H-pyrrol-2-yl)triazol-1-yl]butanoyl]pyrrolidine-2-carboxamide] | 2650 | 1.26 | 2110 |
| CNC(=O)[C@@H]1C[C@@H](O)CN1C(=O)[C@H](C(C)C)n1cc(-c2nccs2)nn1 (mixture of isomers) [Final product from Example S31, (2S, 4R)-4-hydroxy-N-methyl-1-[rac-(2S)-3-methyl-2-(4-thiazol-2-yltriazol-1-yl)butanoyl]pyrrolidine-2-carboxamide] | 1100 | 0.92 | 1200 |
| CNC(=O)[C@@H]1C[C@@H](O)CN1C(=O)[C@H](C1CCOCC1)n1cc(C2CC2)nn1 (single isomer, unassigned) [Final product from Example S6] | 8040 | 3.00 | 2680 |
| CNC(=O)[C@@H]1C[C@@H](O)CN1C(=O)[C@H](C1CCCCC1)n1cc(-c2ccco2)nn1 (single isomer, unassigned) [Final product from Example S23] | 320 | 0.68 | 470 |
| CNC(=O)[C@@H]1C[C@@H](O)CN1C(=O)[C@H](C(C)C)n1nnc2ccccc21 (single isomer, unassigned) [Final product from Example S24] | 2150 | 0.76 | 2840 |
| CNC(=O)[C@@H]1C[C@@H](O)CN1C(=O)[C@H](C(C)C)n1cc(-c2ncco2)nn1 (single isomer, unassigned) [Final product from Example S30] | 920 | 0.95 | 970 |
| CNC(=O)[C@@H]1C[C@@H](O)CN1C(=O)[C@H](C(C)C)n1cc(-c2cncs2)nn1 (single isomer, unassigned) [Final product from Example S33] | 900 | 0.80 | 1120 |
| CNC(=O)[C@@H]1C[C@@H](O)CN1C(=O)[C@@H](C(C)C)n1cc(C2CC2)nn1 (single isomer, unassigned) [Isomer B from Example S11] | > 100000 |  | > 100000 |
| CNC(=O)[C@@H]1C[C@@H](O)CN1C(=O)[C@H](C1CCCCC1)n1cc(C2CC2)nn1 [Final product from Example S3, (2S,4R)-1-((S)-2-cyclohexyl-2-(4-cyclopropyl-1H-1,2,3-triazol-1-yl)acetyl)-4-hydroxy-N-methylpyrrolidine-2-carboxamide] | 1610 | 0.96 | 1670 |
| CNC(=O)[C@@H]1C[C@@H](O)CN1C(=O)[C@@H](n1ccnn1)C(C)(C)C [Final product from Example S4, (2S,4R)-1-((S)-3,3-dimethyl-2-(1H-1,2,3-triazol-1-yl)butanoyl)-4-hydroxy-N-methylpyrrolidine-2-carboxamide] | 15200 | 1.26 | 12100 |
| CNC(=O)[C@@H]1C[C@@H](O)CN1C(=O)[C@H](C1CCN(S(C)(=O)=O)CC1)n1cc(C2CC2)nn1 [Final product from Example S10, (2S,4R)-1-((S)-2-(4-cyclopropyl-1H-1,2,3-triazol-1-yl)-2-(1-(methylsulfonyl)piperidin-4-yl)acetyl)-4-hydroxy-N-methylpyrrolidine-2-carboxamide] | 10000 | 4.83 | 2070 |
| CNC(=O)[C@@H]1C[C@@H](OC(C)=O)CN1C(=O)[C@@H](n1cc(C2CC2)nn1)C(C)(C)C [Final product from Example S12, (3R,5S)-1-((S)-2-(4-cyclopropyl-1H-1,2,3-triazol-1-yl)-3,3-dimethylbutanoyl)-5-(methylcarbamoyl)pyrrolidin-3-yl Acetate] | 62800 | 0.68 | 92800 |
| CC(C)(C)[C@@H](C(=O)N1C[C@H](O)C[C@H]1C(=O)NC1CC1)n1cc(C2CC2)nn1 [Final product from Example S13, (2S,4R)—N-cyclopropyl-1-((S)-2-(4-cyclopropyl-1H-1,2,3-triazol-1-yl)-3,3-dimethylbutanoyl)-4-hydroxypyrrolidine-2-carboxamide] | 9680 | 1.54 | 6270 |
| CC(C)(C)[C@@H](C(=O)N1C[C@H](O)C[C@H]1C(=O)NCC(F)(F)F)n1cc(C2CC2)nn1 [Final product from Example S14, (2S,4R)-1-((S)-2-(4-cyclopropyl-1H-1,2,3-triazol-1-yl)-3,3-dimethylbutanoyl)-4-hydroxy-N-(2,2,2-trifluoroethyl)pyrrolidine-2-carboxamide] | 6550 | 1.24 | 5300 |

Further compounds by falling EC50 (VHL), results first:

| IC50 [1] [nM] | Ratio cell permeability shift [1] | EC50 (VHL) [nM] | SMILES |
| --- | --- | --- | --- |
|  | >10.00 | 10800 | CNC(=O)[C@@H]1C[C@@H](O)CN1C(=O)[C@H](C1CCN(C)CC1)n1cc(C2CC2)nn1 [Final product from Example S8, (2S,4R)-1-((S)-2-(4-cyclopropyl-1H-1,2,3-triazol-1-yl)-2-(1-methylpiperidin-4-yl)acetyl)-4-hydroxy-N-methylpyrrolidine-2-carboxamide] |
|  | >10.00 | 8960 | CNC(=O)[C@@H]1C[C@@H](O)CN1C(=O)[C@H](C1CCNCC1)n1cc(C2CC2)nn1 [Final product from Example S7, (2S,4R)-1-((S)-2-(4-cyclopropyl-1H-1,2,3-triazol-1-yl)-2-(piperidin-4-yl)acetyl)-4-hydroxy-N-methylpyrrolidine-2-carboxamide] |
| 10500 | 1.24 | 8450 | CNC(=O)[C@@H]1C[C@@H](O)CN1C(=O)C(n1cc(C2CC2)nn1)C1(C)CCCCC1 (stereo partly drawn) [Final product from Example S5, (2S,4R)-1-[2-(4-cyclopropyltriazol-1-yl)-2-(1-methylcyclohexyl)acetyl]-4-hydroxy-N-methyl-pyrrolidine-2-carboxamide] |
| 2600 | 0.68 | 3800 | CNC(=O)[C@@H]1C[C@@H](O)CN1C(=O)[C@H](C(C)C)n1nnc2c(OC)cccc21 (single isomer, unassigned) [Final product from Example S25] |
| 3000 | 0.97 | 3100 | CNC(=O)[C@@H]1C[C@@H](O)CN1C(=O)[C@H](C(C)C)n1cc(C2CC2)nn1 (single isomer, unassigned) [Isomer A from Example S11] |
| 69500 | 26.03 | 2670 | CNC(=O)[C@@H]1C[C@@H](O)CN1C(=O)[C@H](C1CCN(C(C)=O)CC1)n1cc(C2CC2)nn1 [Final product from Example S9, (2S,4R)-1-((S)-2-(1-acetylpiperidin-4-yl)-2-(4-cyclopropyl-1H-1,2,3-triazol-1-yl)acetyl)-4-hydroxy-N-methylpyrrolidine-2-carboxamide] |
| 2990 | 1.17 | 2550 | CNC(=O)[C@@H]1C[C@@H](O)CN1C(=O)[C@@H](n1cc(C2CC2)nn1)C(C)(C)C [Final product from Example S2, (2S,4R)-1-((S)-2-(4-cyclopropyl-1H-1,2,3-triazol-1-yl)-3,3-dimethylbutanoyl)-4-hydroxy-N-methylpyrrolidine-2-carboxamide] |
| 1020 | 0.51 | 1980 | CNC(=O)[C@@H]1C[C@@H](O)CN1C(=O)[C@H](C(C)C)n1nnc2cc(F)c(F)cc21 (single isomer, unassigned) [Final product from Example S26] |
